Measured values as given in publication PMC6212778, “Site-specific amino acid substitution in dodecameric peptides determines the stability and unfolding of c-MYC quadruplex promoting apoptosis in cancer cells” (Nucleic Acids Research, 2018).

How the values were obtained:
[1] = system: native c-MYC quadruplex (Pu27); experiment: ITC of peptides with native c-MYC quadruplex Pu27 in potassium phosphate buffer; format: binding, human; conditions: for K A / Kd / ΔG (binding energy) / ΔH (binding enthalpy) / ΔS (entropy): 25°C, 20 μM peptide in cell, 500 μM Pu27 in syringe, 10 mM potassium phosphate, 0.1 M KCl, pH 7.0, one-site model
Method: The putative wild-type and truncated G-quadruplex forming sequences (Table 2 and Supplementary Table S1), located at the upstream of c-MYC promoter are reconstituted in 10 mM Potassium Phosphate buffer (pH 7.0) having 100 mM potassium chloride (KCl). The sequences are allowed to evolve G-quadruplex structure in solution by annealing at 95°C followed by gradual cooling. (Supplementary information Section 1).
(§1) Thermodynamic attributes of the interaction profiles between peptides and putative quadruplex sequences are analysed by ITC using iTC200 Microcalorimeter at 25°C. Synthetic peptides (FK13, KR12A, KR12B, KR12C, KR12D and KR12E) are diluted to 20 μM in 10 mM Potassium phosphate buffer (10 mM K2HPO4 + 10 mM KH2PO4) containing 0.1 M KCl (pH 7.0). Syringe is filled with 500 μM quadruplex sequences present in the upstream promoter regions of c-MYC (Pu27, Pu19, and Myc22), BCL-2 (Pu30), VEGF-A (Pu22), KRAS (Pu32) oncogenes, and telomere (Tel26) dissolved into the same buffer. We also carried out the experiment for KR12C and Pu27 using MCF-7 nuclear extract as the solvent to mimic the cellular microenvironment and impart macromolecular crowding during binding events. Same concentration of oligonucleotides is injected into the identical buffer or in nuclear extract without peptides to normalize the heat of dilution of peptide-quadruplex association to that of the control before curve-fitting. Oligonucleotides are injected 20 times at an interval of 150 s into the calorimeter cell having the peptides to achieve binding saturation. The heat of reaction per injection (μcal/s) is determined by integration of the peak areas using in-built Origin 7.0 software that provides the best-fit values of enthalpy (ΔH) and entropy (ΔS) of binding, the binding stoichiometry (n), and dissociation constant (Kd) (Supplementary Tables S5(a), S5(b) and S5(c)). Data points are further simulated with ‘one-site’ binding modes (Supplementary information Section 1).

[2] = system: BCL-2, VEGF-A, KRAS transcripts in MCF-7 cells; experiment: Real time PCR of other oncogene transcripts; format: cell-based, human; conditions: MCF-7, 24 h, qPCR
Method: To inspect the transcription inhibitory roles of peptides in c-MYC, BCL-2, VEGF-A and KRAS oncogenes having putative quadruplexes in their promoters, we performed real time polymerase chain reactions. MCF-7 cells are sub-cultured into 6-well microtiter plates at a density of 1 × 10^6 cells per well and treated with different concentrations of peptides (FK13, KR12A, KR12B and KR12C) for 24 hours. Total RNA is isolated from both untreated and treated cells using TRIzol method (Invitrogen) as per manufacturer's instructions. 2 μg of total RNA is processed for cDNA synthesis and reverse transcribed using a Super MuLV RT Kit (Biobharati Life Sciences Pvt. Ltd.). Real time PCR is performed using Maxima SYBR Green/ROX qPCR Master Mix (2×) (Thermo-Scientific) as per manufacturer's protocol. Housekeeping gene, GAPDH is used as an internal control to normalize the variability in c-MYC mRNA expression levels (Supplementary information Section 1). PCR primers are designed using Primer-BLAST, NCBI, and analyzed in OligoAnalyser 3.1-IDT (Supplementary Table S2).

KRAS (Pu32) quadruplex = experiment: ITC of peptides with KRAS quadruplex; format: binding, human; conditions: potassium phosphate buffer pH 7.0
Method: as §1, with “Oligonucleotides are injected 20 times at an interval of 150 s into the calorimeter cell having the peptides to achieve binding saturation.” left out, “Data points are further simulated with ‘one-site’ binding modes (Supplementary information Section 1).” left out

c-MYC quadruplex (Pu27) = experiment: ITC of KR12C with Pu27 under macromolecular crowding (MCF-7 nuclear extract); format: binding, human
Method: as §1, with “Oligonucleotides are injected 20 times at an interval of 150 s into the calorimeter cell having the peptides to achieve binding saturation.” left out, “Data points are further simulated with ‘one-site’ binding modes (Supplementary information Section 1).” left out

BCL-2 (Pu30) quadruplex = experiment: ITC of peptides with BCL-2 quadruplex; format: binding, human; conditions: potassium phosphate buffer pH 7.0
Method: as §1, with “Oligonucleotides are injected 20 times at an interval of 150 s into the calorimeter cell having the peptides to achieve binding saturation.” left out, “Data points are further simulated with ‘one-site’ binding modes (Supplementary information Section 1).” left out

[3] = system: telomere (Tel26) quadruplex; experiment: ITC of peptides with telomeric quadruplex; format: binding, human; conditions: potassium phosphate buffer pH 7.0
Method: as §1, with “Oligonucleotides are injected 20 times at an interval of 150 s into the calorimeter cell having the peptides to achieve binding saturation.” left out, “Data points are further simulated with ‘one-site’ binding modes (Supplementary information Section 1).” left out

[4] = system: c-MYC quadruplex isomer Myc22; experiment: CD melting of free and peptide-bound Myc22; format: binding, human
Method: (§2) To understand the role of peptides (FK13, KR12A, KR12B, KR12C, KR12D and KR12E) in stabilizing native and truncated isomers of c-MYC G-quadruplex, we have performed temperature-driven CD melting experiments for free and peptide-bound complexes in JASCO-J815 CD spectrometer. We have gradually titrated the peptides into 10 μM of putative quadruplexes and acquired the spectra after 5 min of peptide addition to allow complex formation and equilibration. Samples are heated from 20 to 95°C having the temperature gradient and the delay time of 2.5°C/min and 150 s respectively. Since the quadruplexes unfold at higher temperatures and revert back to their initial conformations upon renaturation, we have assumed a ‘two-state transition’ model (folded and unfolded) to analyze the melting curves and estimated the melting temperatures (Tm) by fitting the data points into sigmoidal curves (Supplementary information Section 1).

VEGF-A (Pu22) quadruplex = experiment: ITC of peptides with VEGF-A quadruplex; format: binding, human; conditions: potassium phosphate buffer pH 7.0
Method: as §1, with “Oligonucleotides are injected 20 times at an interval of 150 s into the calorimeter cell having the peptides to achieve binding saturation.” left out, “Data points are further simulated with ‘one-site’ binding modes (Supplementary information Section 1).” left out

[5] = system: c-MYC quadruplex isomer Pu19; experiment: CD melting of free and peptide-bound Pu19; format: binding, human; conditions: 10 μM quadruplex, two-state model
Method: as §2

[6] = potassium phosphate buffer pH 7.0

Kd [1] [µM]	ΔG (binding energy) [1] [kcal/mol]	ΔH (binding enthalpy) [1] [kcal/mol]	fold higher binding ΔH for Pu27 association compared to KR12B and KR12D [1, 6] [fold]	binding affinity with KRAS quadruplex (KRAS (Pu32) quadruplex)	Kd (c-MYC quadruplex (Pu27); 25°C, MCF-7 nuclear extract as solvent, single-site model, background subtracted) [nM]	fold increase in binding affinity for Pu27 in MCF-7 nuclear extract versus potassium phosphate buffer (c-MYC quadruplex (Pu27); macromolecular crowding) [fold]	binding affinity with BCL-2 quadruplex (BCL-2 (Pu30) quadruplex)	rise in the Tm of Myc22 upon peptide binding ([4]; 10 μM quadruplex, two-state model) [°C]	binding affinity with VEGF-A quadruplex (VEGF-A (Pu22) quadruplex)	rise in the Tm of Pu19 upon peptide binding [5] [°C]	depletion of the melting temperature of Myc22 upon peptide binding [4] [°C]	Substance	K A [1] [M⁻¹]	ΔS (entropy) [1] [cal/mol/deg]	transcription of other oncogenes (BCL-2, VEGF-A, KRAS) [2]	times higher affinity for Pu27 compared to KR12B and KR12D [1, 6] [times]	fold decreased affinity for BCL-2 quadruplex compared to c-MYC quadruplexes (BCL-2 (Pu30) quadruplex) [fold]	fold decreased affinity for telomeric quadruplex compared to c-MYC quadruplexes [3] [fold]
34.6	-5.982	-77.8										N – FKRIVQRIKDFLR – C [FK13]	28900	−241	abrogated			
8.06	-6.974	-47.8	~2	very poor or no binding affinity	901	~8	very poor or no binding affinity	6.91	very poor or no binding affinity	10.87		N – KRIVKLIKKWLR – C [KR12C]	124000	−137		~5	~3	~4
37.3	-6.18	-137.3										N – KRIVKRIKKWLR – C [KR12B, dodecameric mutant peptide derived from FK13 / LL37]	26800	−440				
61.7	-6.44	-72									~30	N – KRIVQRIKKWLR – C [KR12A, dodecameric mutant peptide derived from FK13 / LL37]	16200	−220	abrogated			
